Laboratory results reported in US20110150914A1, “COMPOSITIONS AND METHODS FOR DENGUE VIRUS (DV) TREATMENT AND VACCINATION” (priority 2008, published 2011).
Ends that are not written are not given here.

Assays:
[1] = tested on: DENV peptide-pulsed target cells; assay: In vivo cytotoxicity assay; conditions: IFN-α/βR^−/− mice infected 7 days previously with 10^10 GE S221; 4 h after i.v. transfer; targets pulsed 0.5 μg/ml
[2] = biological target: T1, purified H-2 D^b molecules (Mus musculus, UniProt P01899); assay: MHC peptide-binding assay, purified H-2 D^b; conditions: purified MHC, radiolabeled peptide competition; read-out: Binding affinity (IC50 nM) H2-D^b
T1 construct: made in house
Procedure: (§1) Briefly, 0.1-1 nM of radiolabeled peptide was co-incubated at room temperature with 1 μM to 1 nM of purified MHC in the presence of 1-3 μM human β2-microglobulin (Scripps Laboratories) and a mixture of protease inhibitors. After a 2 day incubation, binding of the radiolabeled peptide to the corresponding MHC class I molecule was determined by capturing MHC/peptide complexes on Lumitrac 600 microplates (Greiner Bio-One) coated with either the Y3 (anti-H-2 K^b) or 28-14-8S (anti-H-2 D^b, L^d and D^q) Ab, followed by measurement of bound counts per minute (cpm) using the TopCount microscintillation counter (Packard).

CD8^+ T cells [3] = assay: IFN-γ ELISPOT with CD8^+ T cells of DENV2-infected C57BL/6 mice; format: cell-based; conditions: PL046 or S221 infected C57BL/6 mice
[4] = biological target: T2, purified H-2 K^b molecules (Mus musculus, UniProt P01901); assay: MHC peptide-binding assay, purified H-2 K^b; conditions: purified MHC, radiolabeled peptide competition; read-out: Binding affinity (IC50 nM) H2-K^b
T2 construct: made in house
Procedure: as §1, with “MHC purification and quantitative assays to measure the binding affinity of peptides to purified H-2 K^b and H-2 D^b molecules were performed as previously described (Sidney et al., Curr Protoc Immunol 18:1813 2001); Vitiello et al., J Immunol 157:5555 (1996)). Briefly,” for “Briefly,”
To confirm the MHC class I restriction of the 12 identified epitopes, measurements were performed of their MHC binding capacity using purified K^b and D^b molecules in an in vitro binding assay. Seven of the 12 epitopes bound the predicted allele with either high or intermediate affinity, as indicated by an IC50 of <50 nM or <500 nM, respectively. The five remaining epitopes also bound with biologically relevant affinities in the 500-2000 nM range.

CD8^+ T cells [5] = assay: TNF-α and CD107a staining after peptide re-stimulation; format: cell-based, wild-type or IFN-α/βR^−/− mice; conditions: splenocytes day 7 after S221 infection
Procedure: All Ab were purchased from eBioscience with the exception of anti-CD8α-PerCP and anti-CD107a-FITC which were obtained from BD Biosciences. RBC in blood were lysed using RBC lysis buffer (eBioscience). For surface staining, splenocytes or blood cells were washed, incubated with supernatant from 2.4G2-producing hybridoma cells to block Fc receptors, and labeled with anti-CD8α-PerCP, anti-CD44-APC, and anti-CD62L-PE. For intracellular cytokine staining, 10^6 splenocytes or 10^5 blood cells were plated in 96-well U-bottom plates and stimulated with individual DENV peptides (0.1 μg/ml) in the presence of brefeldin A (GolgiPlug, BD Biosciences) for 5 h. For CD107a staining, CD107a-FITC (or rat IgG2a-FITC) was added to the wells at the same time as the peptide. Cells were washed, incubated with 2.4G2 supernatant, labeled with anti-CD8α-PerCP, fixed and permeabilized using the BD Cytofix/Cytoperm Kit, and stained with anti-IFN-γ-APC and anti-TNF-α-PE. Samples were read on a FACS Caliber (BD Biosciences) and analyzed using FloJo software (Tree Star, Inc.)
Because polyfunctional CD8^+ T cell responses are associated with protection (Harari et al., Immunol Rev 211:236 (2006)), the phenotype of the DENV-specific CD8^+ T cells in wild-type and IFN-α/βR^−/− mice was studied in more detail by measuring CD107a expression (CD107a, or LAMP-1, is expressed on the cell surface upon degranulation) and TNF-α production for two of the DENV-specific CD8^+ T cell populations, as described above. To collect the data, splenocytes harvested from wild-type or IFN-α/βR^−/− mice 7 days after infection with 10^11 or 10^10 GE of S221, respectively, were re-stimulated in vitro with C51-59, NS4B99-107, or an irrelevant peptide. An anti-CD107a Ab was added for the duration of the stimulation. Cells were then stained for surface CD8, intracellular IFN-γ and TNF-α, and analyzed by flow cytometry.

T1 sequence (P61769 21-119): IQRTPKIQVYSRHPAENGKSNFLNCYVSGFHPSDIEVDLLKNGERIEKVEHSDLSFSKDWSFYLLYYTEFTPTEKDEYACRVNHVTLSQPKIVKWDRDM
T1 sequence (P01899 25-362): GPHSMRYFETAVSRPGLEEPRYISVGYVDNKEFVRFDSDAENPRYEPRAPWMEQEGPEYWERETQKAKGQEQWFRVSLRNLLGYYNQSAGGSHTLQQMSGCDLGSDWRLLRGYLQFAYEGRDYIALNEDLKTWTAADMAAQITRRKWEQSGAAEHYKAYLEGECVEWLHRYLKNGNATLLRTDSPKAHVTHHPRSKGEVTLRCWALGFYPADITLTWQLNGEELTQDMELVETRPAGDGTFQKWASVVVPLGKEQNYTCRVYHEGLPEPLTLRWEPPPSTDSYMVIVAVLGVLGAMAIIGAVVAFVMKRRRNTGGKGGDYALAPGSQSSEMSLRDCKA
T2 sequence (P61769 21-119): as the sequence (P61769 21-119) above
T2 sequence (P01901 22-369): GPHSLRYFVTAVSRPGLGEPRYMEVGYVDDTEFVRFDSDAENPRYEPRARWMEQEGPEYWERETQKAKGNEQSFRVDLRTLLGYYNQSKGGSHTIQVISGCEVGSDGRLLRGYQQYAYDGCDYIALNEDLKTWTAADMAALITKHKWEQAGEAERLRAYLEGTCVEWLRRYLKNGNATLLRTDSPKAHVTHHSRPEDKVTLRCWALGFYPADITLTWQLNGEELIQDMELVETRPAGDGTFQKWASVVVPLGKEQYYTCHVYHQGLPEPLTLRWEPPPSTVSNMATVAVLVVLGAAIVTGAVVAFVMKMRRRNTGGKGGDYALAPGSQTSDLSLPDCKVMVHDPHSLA

**Q.** YSQVNPITL [NS4B99-107] was tested. Which “percentage killing of peptide-pulsed target cells” value [1] did it give?
**A.** 85%

**Q.** And the IC50 [2]?
**A.** 1.3 nM

**Q.** What about the “IFN-γ ELISPOT response (net SFC per 10^6 CD8^+ T cells), in words” value (CD8^+ T cells [3]) of the same sequence?
**A.** highest responses

**Q.** And the IC50 [4]?
**A.** 1890 nM

**Q.** What about the “CD107a surface expression (degranulation)” value (CD8^+ T cells [5]) of the same sequence?
**A.** expressed CD107a on the surface

**Q.** And the “TNF-α production by peptide-specific CD8^+ T cells” value (CD8^+ T cells [5])?
**A.** produced TNF-α
